Laboratory results: patent publication US8946438B2, “Benzamides, production thereof, and use thereof as medicaments” (Boehringer Ingelheim International GmbH, priority 2008, dated 2015)

Target: p38 MAP-kinase (Homo sapiens, UniProt Q16539)
Test: Enzymatic assay: inhibition of p38 MAP-kinase (phosphorylation of GST-tagged ATF2, chemoluminescence bead readout)
Format: biochemical
Conditions: inhibitor 1 μM; activated p38 MAP-kinase 1 nM; 4 h preincubation; ATP 100 μM; ATF2 10 nM; read-out: % inhibitory effect at 1 μM
Outline: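 Activated human p38 MAP-kinase (1 nM) preincubated 4 h at ambient temperature with compound at 1 μM in HEPES pH 7, MgCl2, DTT, Tween20. Then reacted 1 h with GST-ATF2 (10 nM) and ATP (100 μM). Phospho-ATF2 read by bead chemoluminescence at 520-620 nm, given as % inhibition at 1 μM versus kinase-free background.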

Sequence of p38 MAP-kinase (Q16539 whole entry): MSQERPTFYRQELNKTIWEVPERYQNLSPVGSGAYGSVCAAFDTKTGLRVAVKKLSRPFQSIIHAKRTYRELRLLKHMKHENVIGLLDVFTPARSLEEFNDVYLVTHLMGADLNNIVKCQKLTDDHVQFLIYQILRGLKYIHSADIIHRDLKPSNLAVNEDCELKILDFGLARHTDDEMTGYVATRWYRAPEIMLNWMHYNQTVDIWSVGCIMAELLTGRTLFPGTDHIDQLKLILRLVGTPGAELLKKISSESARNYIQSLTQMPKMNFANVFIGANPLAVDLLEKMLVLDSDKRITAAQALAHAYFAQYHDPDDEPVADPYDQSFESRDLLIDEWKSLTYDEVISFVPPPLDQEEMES

COc1c(NC(=O)c2ccc(C)c(Oc3ccnc(CN4CCCN(C)CC4)n3)c2)cc(C(C)(C)C)cc1NS(C)(=O)=O [8(16), N-(5-tert-butyl-3-methanesulphonylamino-2-methoxy-phenyl)-4-methyl-3-[2-(4-methyl-homopiperazin-1-ylmethyl)-pyrimidin-4-yloxy]-benzamide]
inhibition at 1 µM: 98.7%

COc1c(NC(=O)c2ccc(C)c(Oc3ccnc(NC4CCNCC4)n3)c2)cc(C(C)(C)C)cc1NS(C)(=O)=O [5(16), N-(5-tert-butyl-3-methanesulphonylamino-2-methoxy-phenyl)-4-methyl-3-[2-(piperidin-4-ylamino)-pyrimidin-4-yloxy]-benzamide]
inhibition at 1 µM: 98.9%

COc1c(NC(=O)c2ccc(Cl)c(Oc3ccnc(CC4CCN(C)CC4)n3)c2)cc(C(C)(C)C)cc1NS(C)(=O)=O [12(3), N-(5-tert-butyl-3-methanesulphonylamino-2-methoxy-phenyl)-4-chloro-3-[2-(1-methyl-piperidin-4-ylmethyl)-pyrimidin-4-yloxy]-benzamide]
inhibition at 1 µM: 99.6%

COc1c(NC(=O)c2ccc(C)c(Oc3cc(CN4CCN(C)CC4)ncn3)c2)cc(C(C)(C)C)cc1NS(C)(=O)=O [8(2), N-(5-tert-butyl-3-methanesulphonylamino-2-methoxy-phenyl)-4-methyl-3-[6-(4-methyl-piperazin-1-ylmethyl)-pyrimidin-4-yloxy]-benzamide]
inhibition at 1 µM: 98.7%

COc1c(NC(=O)c2ccc(Cl)c(Oc3cc(NC4CCNCC4)ncn3)c2)cc(C(C)(C)C)cc1NS(C)(=O)=O [Example 11, N-(5-tert-butyl-3-methanesulphonylamino-2-methoxy-phenyl)-4-chloro-3-[6-(piperidin-4-ylamino)-pyrimidin-4-yloxy]-benzamide]
inhibition at 1 µM: 99.2%

COc1c(NC(=O)c2ccc(C)c(Oc3ccnc(CC4CCCNCC4)c3)c2)cc(C(C)(C)C)cc1NS(C)(=O)=O (centres unmarked) [5(52), 3-(2-azepan-4-ylmethyl-pyridin-4-yloxy)-N-(5-tert-butyl-3-methanesulphonylamino-2-methoxy-phenyl)-4-methyl-benzamide]
inhibition at 1 µM: 99.5%

COc1c(NC(=O)c2ccc(C)c(Oc3ccnc(CNC4CCN(C)CC4)n3)c2)cc(C(C)(C)C)cc1NS(C)(=O)=O [8(17), N-(5-tert-butyl-3-methanesulphonylamino-2-methoxy-phenyl)-4-methyl-3-{2-[(1-methyl-piperidin-4-ylamino)-methyl]-pyrimidin-4-yloxy}-benzamide]
inhibition at 1 µM: 96.7%

COc1c(CSC)cc(C(C)(C)C)cc1NC(=O)c1ccc(C)c(Oc2ccnc(CC3CCNCC3)c2)c1 [5(40), N-(5-tert-butyl-2-methoxy-3-methylsulphanylmethyl-phenyl)-4-methyl-3-(2-piperidin-4-ylmethyl-pyridin-4-yloxy)-benzamide]
inhibition at 1 µM: 99.5%

COc1c(NC(=O)c2ccc(C)c(Oc3ccnc(CN4CC[C@H](N(C)C)C4)n3)c2)cc(C(C)(C)C)cc1NS(C)(=O)=O [8(21), (S)-N-(5-tert-butyl-3-methanesulphonylamino-2-methoxy-phenyl)-3-[2-(3-dimethylamino-pyrrolidin-1-ylmethyl)-pyrimidin-4-yloxy]-4-methyl-benzamide]
inhibition at 1 µM: 98.5%

COc1c(NC(=O)c2ccc(C)c(Oc3ccnc(CN[C@H]4CCOC4)c3)c2)cc(C(C)(C)C)cc1NS(C)(=O)=O [8(11), (S)-N-(5-tert-butyl-3-methanesulphonylamino-2-methoxy-phenyl)-4-methyl-3-{2-[(tetrahydro-furan-3-ylamino)-methyl]-pyridin-4-yloxy}-benzamide]
inhibition at 1 µM: 96.7%

COc1c(NC(=O)c2ccc(C)c(Oc3cc(N4CC[C@@H](N(C)C)C4)ncn3)c2)cc(C(C)(C)C)cc1NS(C)(=O)=O [4(12), N-(5-tert-butyl-3-methanesulphonylamino-2-methoxy-phenyl)-3-[6-((R)-3-dimethylamino-pyrrolidin-1-yl)-pyrimidin-4-yloxy]-4-methyl-benzamide]
inhibition at 1 µM: 95.8%
